# Experiments:
# [1] = test system: Human STING (hSTING, residues 155-341); assay: Interaction with hSTING as determined by Differential Scanning Fluorimetry (DSF); assay type: binding; conditions: 100 μM test compounds, 5 μM target protein
# How it was run: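 Thermal shift of hSTING (residues 155-341, 5 μM) with test compounds at 100 μM in 20 mM Tris, 150 mM NaCl, pH 7.5, using 5× SYPRO Orange. Ramped 25 to 95 °C at 0.5 °C per cycle (15 s/cycle) by real-time PCR fluorescence. Tm from duplicate melting curves, averaged.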
# STING HAQ-variant = biological target: T1, STING HAQ-variant (Homo sapiens, UniProt Q86WV6, G230A/H232R/R293Q/R71H); assay: IRF-inducible SEAP reporter assay in THP1-Blue ISG cells, STING HAQ-variant; assay type: cell-based; conditions: STING HAQ-variant (parental or re-introduced), 24 hours incubation
# T1 construct: parental THP1-Blue™ ISG cell lines (which express endogenously HAQ); host or cells: THP1-Blue ISG (parental, endogenous HAQ) or STING-KO clone re-transduced with HAQ (MSCV-ires-GFP-Blasti)
# How it was run: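 THP1-Blue ISG cells expressing STING HAQ, either endogenously (parental) or re-introduced after CRISPR knockout, were seeded at 10000 cells/well. They received 8-point compound dilutions (0.5% DMSO final) for 24 hours at 37° C. IRF-driven SEAP was read with Quanti-Blue at OD 620 nm after 30 minutes, and EC50 came from four-parameter fits.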
# [2] = Solubility measurements (HTS) at pH 6.8; assay type: physicochemical; conditions: kinetic from dmso stock; aqueous McIlvaine buffer pH 6.8, 24 h at room temperature, from 10 mM DMSO stock; read-out: Soblubility
# Protocol: Aqueous solubilities were determined from 10 mM stock solutions of the compounds in DMSO diluted to a final concentration of 250 μM with aqueous McIlvaine buffer at pH 6.8, or with acetonitrile/water (1:1) as a reference. Samples were shaken for 24 h at room temperature in 96-well plates (Whatman Uniplate® 96 wells, 750 μL, polypropylene, round bottom). The plate was then centrifuged at 3,000 rpm for 2 min. 250 μL of each sample were transferred to a Millipore MultiScreenHTS filter plate with a polycarbonate membrane, pore size 0.45 μm. Filtrates were collected by centrifugation at 3,000 rpm for 2 min. The dissolved concentrations were determined by UPLC/UV (Ultra-Performance Liquid Chromatography/ultraviolet) on a Waters ACQUITY UPLC® SQD system equipped with a Waters ACQUITY UPLC® BEH 2.1×50 mm C18 column, particle size 1.7 μm, using a short gradient with water/0.1% formic acid as solvent A and acetonitrile/0.1% formic acid as solvent B (5 to 95% B with 1.7 min total cycle time). Compounds signals were measured with a photodiode array UV detector operated at 254 nm. Solubilities were determined with a one point calibration by comparing peak areas relative to the reference standard using Waters Empower software.
# in vitro = conditions: human, Caco-2, pH 7.4
# Protocol: Cellular Permeability Measurements
# Caco-2 cells were obtained from Leibniz Institute DSMZ-German Collection of Microorganisms and Cell Cultures (Braunschweig, Germany) and cultured in DMEM (Dulbecco's modified Eagle medium) containing (in final concentrations) 10% FCS (fetal calf serum), 1% NEAA (non-essential amino acids), 2 mM Glutamin, 100 U/mL Penicillin and 100 μg/mL Streptomycin. Caco-2 cells were seeded either onto 24-well Transwell inserts (Corning, #3379) for bidirectional permeability assays at a density of 160,000 cells/cm^2 and cultured for 3 weeks, with media change on every second day.
# For bidirectional permeability assays 10 mM DMSO stock solutions were diluted in transport buffer (final concentrations: 128.13 mM NaCl, 5.36 mM KCl, 1 mM MgSO4, 1.8 mM CaCl2, 4.17 mM NaHCO3, 1.19 mM Na2HPO4, 0.41 mM NaH2PO4, 15 mM 2-[4-(2-hydroxyethyl)piperazin-1-yl]ethanesulfonic acid (HEPES), 20 mM glucose, pH 7.4) containing 0.25% bovine serum albumin to a final concentration of 10 μM of the test compounds and added to the apical or basal compartment. Cells were incubated with the compounds for up to 2 h. Samples from the opposite compartment were taken at different timepoints.
# Compound concentrations in the compartments were quantified using a RapidFire-based high-throughput HPLC/MS/MS system (high performance liquid chromatography/mass spectrometry; Bio-Cius) that was customized to a fully automated and flexible platform, termed RIAS. In this modified setup, the sample was aspirated by a vacuum pump into a 10 μL sample loop for 250 ms and flushed onto a C4 cartridge (3.8 μL bed volume; Bio-Cius) with the aqueous mobile phase (99.9% water, 0.09% formic acid, and 0.01% TFA; flow rate 1.5 mL/min). Prior to bioanalysis samples were spiked with internal standard solution and diluted with acetonitrile (ACN) for protein precipitation. Measurement was operated in multiplereaction monitoring (MRM) mode. Quantification was performed using external calibration. A solid-phase extraction step retained the analyte for 3000 ms while interfering matrix (e.g., buffer components) was removed. With a simple step gradient, the analyte was back-eluted from the cartridge for 3,000 ms with the organic mobile phase (99.9% acetonitrile/methanol [1:1, v:v], 0.09% formic acid, and 0.01% TFA) and flushed into the mass spectrometer at a flow rate of 1.25 mL/min. Afterwards, the cartridge was re-equilibrated with the aqueous mobile phase for 500 ms (flow rate 1.5 mL/min).
# Apparent permeability coefficients in the apical to basal direction (Papp,AB) and in the basal to apical direction (Papp,BA) and efflux ratios were calculated as follows: Papp,AB=QAB/(C0·s·t) Papp,BA=QBA/(C0·s·t) Efflux ratio=Papp,BA/Papp,AB
# where Q is the amount of compound recovered in the receiver compartment after the incubation time t, C0 the initial compound concentration given to the donor compartment, and s the surface area of the Transwell inserts. […] In addition, transepithelial electrical resistance (TEER) values are measured for each plate before the permeability assay, and total recovery in donor and receiver compartments was determined for each compound.
# STING H232R-variant = biological target: T2, STING H232R-variant (Homo sapiens, UniProt Q86WV6, H232R); assay: IRF-inducible SEAP reporter assay in THP1-Blue ISG cells, STING H232R-variant; assay type: cell-based; conditions: STING H232R-variant (WT), 24 hours incubation
# T2 construct: expressed in transfected cells; host or cells: THP1-Blue ISG hSTING KO clone, retroviral MSCV-ires-GFP-Blasti
# Excerpt: (§1) In Vitro Cytokine Induction Measured Via Activation of an Interferon Regulatory Factor Inducible Reporter Gene
# (§2) Activation of the STING protein expressed in cell lines results in an increase of interferon production. By the stable integration of an interferon regulatory factor (IRF)-inducible SEAP gene (secreted embryonic alkaline phosphatase) reporter construct the functional interferon signaling pathway can be monitored. Using Invivogen's THP1-Blue™ ISG colorimetric enzyme assay and a suitable optical density (OD) reader the activity of SEAP can be detected and quantified. This technique could be used to characterize pharmacological modification of the STING pathway.
# (§3) Several single nucleotide polymorphisms have been identified in the human STING gene. To determine the activity of the above described compounds, THP1-Blue™ ISG reporter cell lines expressing the different human STING variants have been generated. To do so, the endogenous human STING was first deleted using the CRISPR/CAS9 system: THP1-Blue ISG cells were electroporated with ALL-IN-ONE CRISPR plasmids targeting the STING gene (purchased from Sigma encoding the gRNA and GFP as a reporter gene for successful transduction). GFP positive cells then were sorted 24 h post transfection and expanded. Cells were then dispersed in semisolid methocel medium to allow single cell clone isolations. Clones were then screened for cGAMP responsiveness using the Quanti-Blue™ reporter assay. Non-responsive clones were subsequently analysed for STING loss by western blotting and sequencing of the STING locus.
# (§4) For the overexpression of the human STING variants, a confirmed THP1-Blue™ ISG hSTING KO clone was transduced with individual retroviral plasmids (MSCV-ires-GFP-Blasti) encoding the allelic variants of hSTING (WT (H232R), HAQ, R232H, AQ and R293Q). Transduced cells were sorted for different levels of GFP fluorescence and STING allele expression was analysed by western blot.
# (§5) Measurements of SEAP activity were performed in THP1-Blue™ ISG cells stably expressing the different human STING isoforms and the IRF-inducible SEAP reporter construct. Cells were cultivated in RPMI1640 medium with 10% fetal calf serum, 50 μg/ml Penicillin-Streptomycin, 100 μg/ml Zeocin, and 100 μg/ml Normocin in a 37°, 95% humidity and 5% CO2 incubator.
# (§6) In preparation for the assay, the cells were distributed into the assay plates with a density of 10000 cells/15 μL per well. Compounds were prepared by an 8 point serial dilution in 50% aqueous DMSO and a final dilution step into medium to ensure a final DMSO concentration of 0.5% in the assay. 5 μL of diluted compounds were added to the plates, followed by a 24 hours incubation at 37° C.
# (§7) At the day of the assay, 75 μl per well of Quanti-Blue™ reagent was added to all wells of the plate and the plate was incubated another 30 minutes at 37° C. The OD at 620 nm was measured on the EnVision reader (PerkinElmer).
# (§8) EC50 values and Hill slopes were derived from 8-point four parametric non-linear curve fittings with the Megalab software (Boehringer Ingelheim) using the OD at 620 nm.
# (§9) Data of EC50 values can be found in tables 2a-2e.
# Data of EC50 values on STING H232R-variant can be found in table 2b: […]
# STING R232H-variant = biological target: T3, STING R232H-variant (Homo sapiens, UniProt Q86WV6); assay: IRF-inducible SEAP reporter assay in THP1-Blue ISG cells, STING R232H-variant; assay type: cell-based; conditions: 24 hours incubation
# T3 construct: expressed in transfected cells; host or cells: THP1-Blue ISG hSTING KO clone, retroviral MSCV-ires-GFP-Blasti
# Excerpt: as §1, §2, §3, §4, §5, §6, §7, §8, §9
# Data of EC50 values on STING R232H-variant can be found in table 2c: […]
# STING R293Q-variant = biological target: T4, STING R293Q-variant (Homo sapiens, UniProt Q86WV6, H232R/R293Q); assay: IRF-inducible SEAP reporter assay in THP1-Blue ISG cells, STING R293Q-variant; assay type: cell-based; conditions: 24 hours incubation
# T4 construct: expressed in transfected cells; host or cells: THP1-Blue ISG hSTING KO clone, retroviral MSCV-ires-GFP-Blasti
# Excerpt: as §1, §2, §3, §4, §5, §6, §7, §8, §9
# Data of EC50 values on STING R293Q-variant can be found in table 2d: […]
# STING AQ-variant = biological target: T5, STING AQ-variant (Homo sapiens, UniProt Q86WV6, G230A/H232R/R293Q); assay: IRF-inducible SEAP reporter assay in THP1-Blue ISG cells, STING AQ-variant; assay type: cell-based; conditions: 24 hours incubation
# T5 construct: expressed in transfected cells; host or cells: THP1-Blue ISG hSTING KO clone, retroviral MSCV-ires-GFP-Blasti
# Excerpt: as §1, §2, §3, §4, §5, §6, §7, §8, §9
# Data of EC50 values on STING AQ-variant can be found in table 2e: […]
# T2 sequence (Q86WV6 whole entry H232R): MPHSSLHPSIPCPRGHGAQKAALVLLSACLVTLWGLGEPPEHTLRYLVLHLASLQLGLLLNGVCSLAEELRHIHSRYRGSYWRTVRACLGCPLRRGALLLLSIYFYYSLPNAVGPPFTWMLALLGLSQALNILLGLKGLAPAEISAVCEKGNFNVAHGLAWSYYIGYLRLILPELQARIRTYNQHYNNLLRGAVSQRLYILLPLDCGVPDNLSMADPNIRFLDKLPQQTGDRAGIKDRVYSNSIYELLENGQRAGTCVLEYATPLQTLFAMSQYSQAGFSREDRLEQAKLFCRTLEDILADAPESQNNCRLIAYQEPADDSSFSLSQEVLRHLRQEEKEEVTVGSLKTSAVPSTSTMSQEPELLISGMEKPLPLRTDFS
# T1 sequence (Q86WV6 whole entry R71H/G230A/H232R/R293Q): as the sequence (Q86WV6 whole entry H232R) above, with R71H, G230A, R293Q counted along it
# T4 sequence (Q86WV6 whole entry H232R/R293Q): as the sequence (Q86WV6 whole entry H232R) above, with R293Q counted along it
# T3 sequence (Q86WV6 whole entry, stated change not applied): as the sequence (Q86WV6 whole entry H232R) above, with R232H counted along it
# T5 sequence (Q86WV6 whole entry G230A/H232R/R293Q): as the sequence (Q86WV6 whole entry H232R) above, with G230A, R293Q counted along it
Compound,EC50 (STING HAQ-variant),solubility kinetic at 24 h [2],Papp A→B at 10 μM (in vitro),efflux ratio at 10 μM (in vitro),EC50 (STING H232R-variant),EC50 (STING R232H-variant),EC50 (STING R293Q-variant),EC50 (STING AQ-variant),thermal shift (ΔTm) [1]
"Cc1cccc2c(-c3cccc4c3OCO4)nn(-c3ccc(N4CC5C(C4)C5C(=O)O)nc3)c12 (centres unmarked) [compound 30, 3-(5-[3-(2H-1,3-benzodi-oxol-4-yl)-7-methyl-1H-in-dazol-1-yl]pyridin-2-yl}-3-azabicyclo[3.1.0]hexane-6-carboxylic acid]",6100 nM,42 µg/mL,14 ×10⁻⁶ cm/s,0.9,,,,,20 K
"Cc1cccc2c(-c3cccc4cnc(N(C)C)cc34)nn(-c3ccc(N4CCC(C(=O)O)CC4)nc3)c12 [Example #63, 1-(5-{3-[3-(dimethyla-mino)isoquinolin-5-yl]-7-methyl-1H-indazol-1-yl}pyridin-2-yl)piperidine-4-carboxylic acid]",4900 nM,75 µg/mL,19 ×10⁻⁶ cm/s,0.6,,,,,19 K
"Cc1cccc2c(-c3cccc4cnccc34)nn(-c3ccc(N4CCC(C(=O)O)CC4)nc3)c12 [compound 62, 1-{5-[3-(isoquinolin-5-yl)-7-methyl-1H-indazol-1-yl]pyridin-2-yl}piperidine-4-carboxylic acid]",3100 nM,49 µg/mL,11 ×10⁻⁶ cm/s,1.2,,,,,20 K
"Cc1c(CO)ccc2c(-c3cccc4nn(C)cc34)nn(-c3ccc(N4CC5C(C4)C5C(=O)O)nc3)c12 (centres unmarked) [compound 71, 3-{5-[6-(hydroxymethyl)-2′,7-dimethyl-1H,2′H-[3,4′-biindazol]-1-yl]pyri-din-2-yl}-3-azabicy-clo[3.1.0]hexane-6-car-boxylic acid]",600 nM,67 µg/mL,,,,,,,29 K
"Cc1c(-c2cnn(C)c2)ccc2c(-c3cccc4nn(C)cc34)nn(-c3ccc(N4CC5C(C4)C5C(=O)O)nc3)c12 (centres unmarked) [Example #28, 3-{5-[2′,7-dimethyl-6-(1-methyl-1H-pyrazol-4-yl)-1H,2′H-[3,4′-biindazol]-1-yl]pyridin-2-yl}-3-azabicy-clo[3.1.0]hexane-6-carbox-ylic acid]",80 nM,87 µg/mL,,,,,,,27 K
"COC(=O)C1C2CN(c3ccc(-n4nc(-c5cccc6nn(C)cc56)c5cccc(C)c54)cn3)CC21 (centres unmarked) [Example #1, Methyl 3-(5-(2′,7-dimethyl-1H,2′H-[3,4′-biindazol]-1-yl)pyridin-2-yl)-3-azabicyclo[3.1.0]hexane-6-carboxylate]",700 nM,,,0.4,200 nM,200 nM,400 nM,200 nM,21 K
"Cc1cc2c(-c3nn(-c4ccc(N5CCC(C(=O)O)CC5)nc4)c4c(C)cccc34)cccc2cn1 [Example #61, 1-{5-[7-methyl-3-(3-methylisoquinolin-5-yl)-1H-indazol-1-yl]pyridin-2-yl}piperidine-4-carboxylic acid]",3000 nM,,10 ×10⁻⁶ cm/s,1.1,2900 nM,2900 nM,2200 nM,3000 nM,16 K

# More lines, main results first:
EC50 (STING HAQ-variant),solubility kinetic at 24 h [2],Papp A→B at 10 μM (in vitro),efflux ratio at 10 μM (in vitro),EC50 (STING H232R-variant),EC50 (STING R232H-variant),EC50 (STING R293Q-variant),EC50 (STING AQ-variant),Compound,thermal shift (ΔTm) [1]
6800 nM,84 µg/mL,,,,,,,"Cc1cccc2c(-c3cccc4nn(C)cc34)nn(-c3ccc(N4CCN(CC(=O)O)C(=O)C4)nc3)c12 [compound 58, 2-[4-(5-{2′,7-dimethyl-1H,2′H-[3,4′-biindazol]-1-yl}pyridin-2-yl)-2-oxopi-perazin-1-yl]acetic acid]",23 K
16100 nM,74 µg/mL,18 ×10⁻⁶ cm/s,1.2,,,,,"Cc1cc(C)c2c(c1)c(-c1cccc3nn(C)cc13)nn2-c1ccc(N2CCC(C(=O)O)CC2)nc1 [Example #70, 1-(5-{2′,5,7-trimethyl-1H,2′H-[3,4′-biindazol]-1-yl}pyridin-2-yl)piperidine-4-carboxylic acid]",
6500 nM,51 µg/mL,,,,,,,"Cc1cccc2c(-c3cccc4nn(C)cc34)nn(-c3ccc(N4CCC(c5nn[nH]n5)CC4)nc3)c12 [Example #19, 2′,7-dimethyl-1-{6-[4-(2H-1,2,3,4-tetrazol-5-yl)piperi-din-1-yl]pyridin-3-yl}-1H,2′H-3,4′-biindazole]",21 K
700 nM,,10 ×10⁻⁶ cm/s,1.6,100 nM,200 nM,700 nM,700 nM,"Cc1cccc2c(-c3cccc4nn(C)cc34)nn(-c3ccc(N4CCC(S(N)(=O)=O)CC4)nc3)c12 [Example #22, 1-(5-{2′,7-dimethyl-1H,2′H-[3,4'′biindazol]-1-yl}pyri-din-2-yl)piperidine-4-sul-fonamide]",23 K
1700 nM,,50 ×10⁻⁶ cm/s,0.2,700 nM,700 nM,1600 nM,1900 nM,"Cc1cccc2c(-c3cccc4nn(C)cc34)nn(-c3ccc(N4CC5(CCN(C=O)C5)C4)nc3)c12 [compound 53, 2-(5-{2′,7-dimethyl-1H,2′H-[3,4′-biinda-zol]-1-yl}pyridin-2-yl)-2,6-dia-zaspiro[3.4]octane-6-carbaldehyde]",20 K

# Reference: patent US12065427B2, “Heterocyclic compounds capable of activating STING” (BOEHRINGER INGELHEIM INTERNATIONAL GMBH, priority 2021, dated 2024)
